The source of these data is ChEMBL document CHEMBL4834431, “Design of Dimeric Bile Acid Derivatives as Potent and Selective Human NTCP Inhibitors” (J Med Chem, 2021).

Calls of active or inactive are those of the source. The rule behind the calls is not given here.

The subject of series [1] is Hepatitis B virus. In words: Antiviral activity against HBV infected in human HepG2-NTCP cells assessed as reduction in HBeAg secretion at 1 uM compound added along with viral infection by ELISA. The format is functional, organism-based. In general terms: ELISA stands for enzyme-linked immunosorbent assay.
Series [2] concerns Hepatitis B virus. The series is described as follows: Antiviral activity against HBV infected in human HepG2-NTCP cells assessed as reduction in intracellular accumulation of HBcAg at 1 uM by immunostaining based fluorescence microscopic analysis. Type of series: functional, organism-based.
In series [3] the target is T1, Hepatic sodium/bile acid cotransporter (Homo sapiens, UniProt Q14973).
T1 sequence (Q14973 whole entry): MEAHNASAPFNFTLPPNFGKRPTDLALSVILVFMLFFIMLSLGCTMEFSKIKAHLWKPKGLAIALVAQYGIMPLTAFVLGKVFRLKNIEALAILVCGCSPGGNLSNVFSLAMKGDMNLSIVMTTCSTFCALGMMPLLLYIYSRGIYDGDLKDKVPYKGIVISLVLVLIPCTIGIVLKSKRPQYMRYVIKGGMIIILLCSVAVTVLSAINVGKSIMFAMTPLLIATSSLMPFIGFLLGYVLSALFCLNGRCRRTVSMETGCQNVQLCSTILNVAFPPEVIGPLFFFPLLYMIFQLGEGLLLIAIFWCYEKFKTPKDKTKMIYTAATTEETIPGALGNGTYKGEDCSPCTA
The series is described as follows: Inhibition of human NTCP-mediated [3H]-TCA uptake expressed in human HepG2 cells at 0.4 to 10 uM incubated for 10 mins by liquid scintillation counter analysis. The format is cell-based. The conditions noted are these: hepg2, 10 min, dose 0.4-10 µM.

Series [4] concerns the target T1, Hepatic sodium/bile acid cotransporter. In words: Inhibition of human NTCP-mediated [3H]-TCA uptake expressed in human HepG2 cells pretreated for 2 hrs followed by [3H]-TCA addition in absence of FBS. The format is cell-based.
The test system of series [5] is Hepatitis B virus. In words: Antiviral activity against HBV infected in human HepG2-NTCP cells assessed as reduction in intracellular accumulation of HBsAg at 1 uM by immunostaining based fluorescence microscopic analysis. The format is functional, organism-based.
A further series deals with Hepatitis delta virus. In words: Antiviral activity against HDV infected in human HepG2-NTCP cells assessed as reduction in intranuclear accumulation of HDV delta antigen at 5 uM incubated for 24 hrs followed by replacement with fresh medium and measured at day 5 post infection by DAPI staining based confocal microscopic analysis (reference value: 12.1 %). Type of series: functional. Further details: scale not given: the % may be the effect or the level left.

Series [6] deals with HepG2. In words: Inhibition of tree shrew NTCP-mediated [3H]-TCA uptake expressed in human HepG2 cells. Type of series: cell-based. The conditions noted are these: Scandentia.
The test system of series [7] is Hepatitis B virus. The series is described as follows: Antiviral activity against HBV infected in human HepG2-NTCP cells assessed as reduction in HBeAg secretion at 31.25 to 2000 nM incubated for 24 hrs followed by replacement with fresh medium and measured at day 5 post infection by ELISA. The format is functional, organism-based. The conditions noted are these: dose 31.25-2000 nM.

In series [8] the target is T1, Hepatic sodium/bile acid cotransporter. In words: Inhibition of FITC-labeled HBV Pre-S1 polypeptide binding to human NTCP expressed in HepG2 cells after 2 to 3 hrs by confocal microscopic analysis. The conditions noted are these: time 2-3 hrs. The format is cell-based.
Series [9] concerns HepG2. In words: (§1) Inhibition of monkey NTCP-mediated [3H]-TCA uptake expressed in human HepG2 cells. The conditions noted are these: Macaca mulatta. Type of series: cell-based.
For series [10], the system named is HepG2. The series is described as follows: Inhibition of monkey NTCP-mediated NQL-064 uptake expressed in human HepG2 cells. The format is cell-based. The conditions noted are these: Macaca mulatta.
The target of series [11] is T1, Hepatic sodium/bile acid cotransporter. The series is described as follows: Inhibition of human NTCP-mediated NQL-064 uptake expressed in human HepG2 cells. Type of series: cell-based.
Series [12] concerns the target Hepatic sodium/bile acid cotransporter (Homo sapiens, UniProt Q14973). The series is described as follows: Inhibition of human NTCP residues (157 to 165) replaced with monkey NTCP -mediated [3H]-TCA uptake expressed in human HepG2 cells. Type of series: cell-based.
Series [13] is described as follows: as §1. Type of series: cell-based. The conditions noted are these: Macaca mulatta.
For series [14], the target named is T2, Hepatic sodium/bile acid cotransporter (Mus musculus, UniProt O08705).
T2 sequence (O08705 whole entry): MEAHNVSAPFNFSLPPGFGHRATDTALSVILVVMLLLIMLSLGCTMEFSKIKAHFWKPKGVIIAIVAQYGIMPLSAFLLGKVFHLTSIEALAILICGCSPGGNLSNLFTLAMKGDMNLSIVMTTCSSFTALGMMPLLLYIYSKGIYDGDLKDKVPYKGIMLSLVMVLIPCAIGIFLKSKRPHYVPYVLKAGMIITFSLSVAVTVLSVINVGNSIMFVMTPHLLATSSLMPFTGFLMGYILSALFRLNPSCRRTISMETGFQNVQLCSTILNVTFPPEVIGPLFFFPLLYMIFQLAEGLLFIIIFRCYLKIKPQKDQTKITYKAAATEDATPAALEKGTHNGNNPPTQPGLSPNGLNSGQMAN
The series is described as follows: Inhibition of mouse NTCP-mediated NQL-064 uptake expressed in human HepG2 cells. Type of series: cell-based.

Series [15] relates to HepG2. In words: Inhibition of tree shrew NTCP-mediated NQ-064 uptake expressed in human HepG2 cells. The conditions noted are these: Scandentia. The format is cell-based.

As to `C[C@H](CCC(=O)O[C@@H]1CC[C@@]2(C)[C@@H](C1)C[C@H](O)[C@@H]1[C@@H]2CC[C@]2(C)[C@@H]([C@H](C)CCC(=O)NCCS(=O)(=O)O)CC[C@@H]12)[C@H]1CC[C@H]2[C@@H]3[C@@H](O)C[C@@H]4C[C@H](O)CC[C@]4(C)[C@H]3CC[C@]12C`, the outcome in the series on Hepatitis B virus [1], with Hepatitis B virus [2], in the series with Hepatitis B virus [5] and in the series on Hepatitis B virus [7] was Active. Moreover, the “inhibition (INH)” value in series [3] and in series [8] was “Active” throughout. For the same compound, the IC50 (as a rule, the concentration that gives 50% inhibition) in series [4] was determined as 0.0362 µM. Also, in the series on Hepatitis delta virus, the Activity came out at 1.7%. Moreover, the inhibition entry in the series with HepG2 [6] and in the series on HepG2 [9] was “Active” each time.

Consider `C[C@H](CCC(=O)NCCS(=O)(=O)O)[C@H]1CC[C@H]2[C@@H]3[C@@H](O)C[C@@H]4C[C@H](NC(=O)CCCC(=O)N[C@@H]5CC[C@@]6(C)[C@@H](C5)C[C@H](O)[C@@H]5[C@@H]6CC[C@]6(C)[C@@H]([C@H](C)CCC(=O)NCCS(=O)(=O)O)CC[C@@H]56)CC[C@]4(C)[C@H]3CC[C@]12C`, for which the outcome in the series on Hepatitis B virus [1], with Hepatitis B virus [2] and in the series on Hepatitis B virus [5] was Active. Further, the inhibition result in the series with HepG2 [10], with HepG2 [6], in the series on HepG2 [9] and with HepG2 [15] was “inactive” throughout. Further, the results for the “inhibition (INH)” value in series [11], in series [8] and in series [14] were “Active”, “Active” and “Not Active”, respectively. Moreover, the Activity in the series with Hepatitis delta virus worked out at 2.5%. The IC50 in [12] came to 8.35 µM; in series [13], 4.77 µM.
